Measurements as given in US20200339625A1, “NOVEL RADIOMETAL-BINDING COMPOUNDS FOR DIAGNOSIS OR TREATMENT OF PROSTATE SPECIFIC MEMBRANE ANTIGEN-EXPRESSING CANCER” (PROVINCIAL HEALTH SERVICES AUTHORITY, priority 2017, published 2020).

Assay: Radiation dosimetry calculation (OLINDA), extrapolated to humans (male)
Set-up: species or system human
Procedure: Internal dosimetry estimates were calculated using the organ level internal dose assessment (OLINDA) software v.2.0.^37 These estimates were performed for the mouse using the 25 g MOBY phantom,^38 for humans using the NURBS model for the adult male,^39 and for the tumors using the previously reported unit density sphere model.^40 All the phantoms and the sphere model are available in OLINDA and require the input of the total number of decays normalized by injected activity in units of MBq×h/MBq for each of the source organ/tumor.
Extrapolation of the mice biodistribution data to humans was performed using the method proposed by Kirschner et al.^41 and shown in the following equation: […]
Where morgan is the mass of the organ and M represents the total body mass. The subscripts indicate whether the values correspond to human or mouse. Masses for the organs and total body weight were taken from the simulated masses of the phantoms in OLINDA. […] The % ID/g of the blood was assumed to be the one for the heart contents of the phantom. This value was also used to calculate the bone marrow uptake based on the method described by Wessels et al.^42 in which we assumed a hematocrit fraction of 0.40 based on the patient values shown on that study. At the end, red marrow values used the blood measurements scaled by a factor of 0.32. In the human case, the fat, muscle, and seminal vesicles that are present in the biodistribution data are not modelled in the phantom so the numbers of decays present in these regions were included in the remainder of the body. The data was again fitted as for the mouse case and the values for the total number of decays in units of MBq×h/MBq were inputted in OLINDA.

[1] = source organ Adrenals, human male
[2] = source organ Cortical bone, human male
[3] = source organ Heart contents, human male
[4] = source organ Heart wall, human male
[5] = source organ Kidneys, human male
[6] = source organ Left colon, human male
[7] = source organ Pancreas, human male
[8] = source organ Rectum, human male
[9] = source organ Red marrow, human male
[10] = source organ Remainder of the body, human male
[11] = source organ Right colon, human
[12] = source organ Small Intestine, human
[13] = source organ Spleen, human male
[14] = source organ Stomach contents, human male
[15] = source organ Testes, human male
[16] = source organ Urinary bladder contents, human male

| Compound | Kinetics value [1] [MBq-h/MBq] | Kinetics value (source organ Brain, human male) [MBq-h/MBq] | Kinetics value [2] [MBq-h/MBq] | Kinetics value [3] [MBq-h/MBq] | Kinetics value [4] [MBq-h/MBq] | Kinetics value [5] [MBq-h/MBq] | Kinetics value [6] [MBq-h/MBq] | Kinetics value (source organ Liver, human male) [MBq-h/MBq] | Kinetics value (source organ Lungs, human male) [MBq-h/MBq] | Kinetics value [7] [MBq-h/MBq] | Kinetics value [8] [MBq-h/MBq] | Kinetics value [9] [MBq-h/MBq] | Kinetics value [10] [MBq-h/MBq] | Kinetics value [11] [MBq-h/MBq] | Kinetics value [12] [MBq-h/MBq] | Kinetics value [13] [MBq-h/MBq] | Kinetics value [14] [MBq-h/MBq] | Kinetics value [15] [MBq-h/MBq] | Kinetics value [16] [MBq-h/MBq] |
| --- | --- | --- | --- | --- | --- | --- | --- | --- | --- | --- | --- | --- | --- | --- | --- | --- | --- | --- | --- |
| O=C([O-])CN1CCN(CC(=O)[O-])CCN(CC(=O)NCC2CCC(C(=O)N[C@@H](Cc3ccc4ccccc4c3)C(=O)NCCCC[C@H](NC(=O)N[C@@H](CCC(=O)O)C(=O)O)C(=O)O)CC2)CCN(CC(=O)[O-])CC1.[177Lu+3] (some centres unmarked) [^177Lu-PSMA-617, reference compound] | 1.00E−03 | 6.71E−03 | 5.30E−03 | 4.29E−03 | 2.02E−03 | 3.98E−01 | 1.53E−03 | 2.32E−02 | 2.41E−02 | 8.55E−04 | 7.16E−04 | 3.15E−03 | 5.39E−01 | 1.53E−03 | 6.65E−03 | 6.93E−03 | 5.06E−03 | 3.72E−04 | 3.15E−01 |
| O=C([O-])CN1CCN(CC(=O)[O-])CCN(CC(=O)NCCCC[C@H](NC(=O)[C@H](CCC(=O)O)NC(=O)CCCc2ccc(I)cc2)C(=O)NC[C@H]2CC[C@H](C(=O)N[C@@H](Cc3ccc4ccccc4c3)C(=O)NCCCC[C@H](NC(=O)N[C@@H](CCC(=O)O)C(=O)O)C(=O)O)CC2)CCN(CC(=O)[O-])CC1.[177Lu+3] [^177Lu-HTK01169] | 1.55E−02 | 3.42E−02 | 1.03E−02 | 3.16E−01 | 7.97E−02 | 6.81E+00 | 1.99E−02 | 4.98E−01 | 6.03E−01 | 2.05E−02 | 9.27E−03 | 2.46E−01 | 1.21E+01 | 1.99E−02 | 8.61E−02 | 2.03E−01 | 1.44E−02 | 1.25E−02 | 1.72E−01 |
